Source: patent publication US20210045385A1, “PYRIDAZINONE-SUBSTITUTED KETOXIMES AS HERBICIDES” (FMC Corporation, priority 2018, published 2021)

Key:
Type in all cases: in vivo
[1] = tested on: ragweed (common ragweed, Ambrosia artemisiifolia); assay: Test C preemergence, visual plant response rating; conditions: Test C, 0 is no effect, 100 is complete control
In short: (§1)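 Seeds sown in a loam–sand blend got a directed preemergence soil spray; postemergence plants (2–10 cm, one- to two-leaf stage) were sprayed with compound in a non-phytotoxic solvent plus surfactant. Injury was scored visually against untreated controls after about 10 d in a greenhouse on a 0–100 scale (100 = complete control).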

[2] = tested on: barnyardgrass (Echinochloa crus-galli); assay: Test C preemergence, visual plant response rating; conditions: Test C, 0 is no effect, 100 is complete control
In short: as §1

[3] = tested on: pigweed (Amaranthus retroflexus); assay: Test C preemergence, visual plant response rating; conditions: Test C, 0 is no effect, 100 is complete control
In short: as §1

kochia (Bassia scoparia) [4] = assay: Test C preemergence, visual plant response rating; conditions: Test C, 0 is no effect, 100 is complete control
In short: as §1

[5] = tested on: foxtail, giant (giant foxtail, Setaria faberi); assay: Test C preemergence, visual plant response rating; conditions: Test C, 0 is no effect, 100 is complete control
In short: as §1

[6] = tested on: Italian ryegrass (Lolium mutiflorum); assay: Test C preemergence, visual plant response rating; conditions: Test C, 0 is no effect, 100 is complete control
In short: as §1

[7] = tested on: barnyardgrass (Echinochloa crus-galli); assay: Test D flooded paddy test, visual plant response rating; conditions: 250 g ai/ha, scale 0 to 100 (0 no effect, 100 complete control), 13 to 15 d
In short: (§2)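 Greenhouse paddy assay scored on a 0–100 visual scale after 13 to 15 d, where 100 means complete control and a dash marks no result; dosing was into 3 cm floodwater over 2-leaf plants.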

[8] = tested on: sedge umbrella (small-flower umbrella sedge, Cyperus difformis); assay: as above; conditions: 250 g ai/ha, scale 0 to 100 (0 no effect, 100 complete control), 13 to 15 d
In short: as §2

rice (Oryza sativa) = assay: as above; conditions: 250 g ai/ha, scale 0 to 100 (0 no effect, 100 complete control), 13 to 15 d
In short: as §2

[9] = tested on: duck salad (Heteranthera limosa); assay: as above; conditions: 250 g ai/ha, scale 0 to 100 (0 no effect, 100 complete control), 13 to 15 d
In short: as §2

[10] = tested on: wheat (Triticum aestivum); assay: Test C postemergence, visual plant response rating
In short: as §1

[11] = tested on: blackgrass (Alopecurus myosuroides); assay: Test C postemergence, visual plant response rating
In short: as §1

[12] = tested on: ragweed (common ragweed, Ambrosia artemisiifolia); assay: Test C postemergence, visual plant response rating
In short: as §1

[13] = tested on: barnyardgrass (Echinochloa crus-galli); assay: Test C postemergence, visual plant response rating
In short: as §1

corn (Zea mays) = assay: Test C postemergence, visual plant response rating
In short: as §1

[14] = tested on: pigweed (Amaranthus retroflexus); assay: Test C postemergence, visual plant response rating
In short: as §1

[15] = tested on: galium (catchweed bedstraw, Galium aparine); assay: Test C postemergence, visual plant response rating
In short: as §1

kochia (Bassia scoparia) [16] = assay: Test C postemergence, visual plant response rating
In short: as §1

[17] = tested on: foxtail, giant (giant foxtail, Setaria faberi); assay: Test C postemergence, visual plant response rating
In short: as §1

[18] = tested on: Italian ryegrass (Lolium mutiflorum); assay: Test C postemergence, visual plant response rating
In short: as §1

[19] = Test C, postemergence, 125 g ai/ha

## CO/N=C(\c1cc(Cl)c(F)c(Cl)c1)c1c(O)c(C)nn(C)c1=O [Compound 290]
[1]; 31 g ai/ha
  Ragweed plant response rating (0 to 100 scale): 20
[1]; 125 g ai/ha
  Ragweed plant response rating (0 to 100 scale): 90
[2]; 31 g ai/ha
  Barnyardgrass plant response rating (0 to 100 scale): 0
[2]; 125 g ai/ha
  Barnyardgrass plant response rating (0 to 100 scale): 0
[3]; 31 g ai/ha
  Pigweed plant response rating (0 to 100 scale): 10
[3]; 125 g ai/ha
  Pigweed plant response rating (0 to 100 scale): 30
Kochia (Bassia scoparia) [4]; 31 g ai/ha
  Kochia plant response rating (0 to 100 scale): 0
Kochia (Bassia scoparia) [4]; 125 g ai/ha
  Kochia plant response rating (0 to 100 scale): 0
[5]; 31 g ai/ha
  Foxtail, Giant plant response rating (0 to 100 scale): 0
[5]; 125 g ai/ha
  Foxtail, Giant plant response rating (0 to 100 scale): 20
[6]; 31 g ai/ha
  Ryegrass, Italian plant response rating (0 to 100 scale): 0
[6]; 125 g ai/ha
  Ryegrass, Italian plant response rating (0 to 100 scale): 40
[7]
  Plant response rating, Barnyardgrass (Flood): 0
[8]
  Plant response rating, Sedge, Umbrella (Flood): 0
Rice (Oryza sativa)
  Plant response rating, Rice (Flood): 0
[9]
  Plant response rating, Ducksalad (Flood): 0
[10]; Postemergence, 31 g ai/ha
  Wheat plant response rating (0 to 100 scale): 0
[10]; [19]
  Wheat plant response rating (0 to 100 scale): 0
[11]; Postemergence, 31 g ai/ha
  Blackgrass plant response rating (0 to 100 scale): 0
[11]; [19]
  Blackgrass plant response rating (0 to 100 scale): 0
[12]; Postemergence, 31 g ai/ha
  Ragweed plant response rating (0 to 100 scale): 20
[12]; [19]
  Ragweed plant response rating (0 to 100 scale): 50
[13]; Postemergence, 31 g ai/ha
  Barnyardgrass plant response rating (0 to 100 scale): 0
[13]; [19]
  Barnyardgrass plant response rating (0 to 100 scale): 20
Corn (Zea mays); Postemergence, 31 g ai/ha
  Corn plant response rating (0 to 100 scale): 0
Corn (Zea mays); [19]
  Corn plant response rating (0 to 100 scale): 0
[14]; Postemergence, 31 g ai/ha
  Pigweed plant response rating (0 to 100 scale): 0
[14]; [19]
  Pigweed plant response rating (0 to 100 scale): 0
[15]; Postemergence, 31 g ai/ha
  Galium plant response rating (0 to 100 scale): 70
[15]; [19]
  Galium plant response rating (0 to 100 scale): 100
Kochia (Bassia scoparia) [16]; Postemergence, 31 g ai/ha
  Kochia plant response rating (0 to 100 scale): 0
Kochia (Bassia scoparia) [16]; [19]
  Kochia plant response rating (0 to 100 scale): 20
[17]; Postemergence, 31 g ai/ha
  Foxtail, Giant plant response rating (0 to 100 scale): 0
[17]; [19]
  Foxtail, Giant plant response rating (0 to 100 scale): 0
[18]; Postemergence, 31 g ai/ha
  Ryegrass, Italian plant response rating (0 to 100 scale): 0
[18]; [19]
  Ryegrass, Italian plant response rating (0 to 100 scale): 60

## Cc1nn(C)c(=O)c(/C(=N\OC(C)C)c2cccc3cc(Cl)ccc23)c1O [Compound 241]
[1]; 31 g ai/ha
  Ragweed plant response rating (0 to 100 scale): 40
[1]; 125 g ai/ha
  Ragweed plant response rating (0 to 100 scale): 10
[2]; 31 g ai/ha
  Barnyardgrass plant response rating (0 to 100 scale): 10
[2]; 125 g ai/ha
  Barnyardgrass plant response rating (0 to 100 scale): 60
[3]; 31 g ai/ha
  Pigweed plant response rating (0 to 100 scale): 90
[3]; 125 g ai/ha
  Pigweed plant response rating (0 to 100 scale): 100
Kochia (Bassia scoparia) [4]; 31 g ai/ha
  Kochia plant response rating (0 to 100 scale): 0
Kochia (Bassia scoparia) [4]; 125 g ai/ha
  Kochia plant response rating (0 to 100 scale): 0
[5]; 31 g ai/ha
  Foxtail, Giant plant response rating (0 to 100 scale): 80
[5]; 125 g ai/ha
  Foxtail, Giant plant response rating (0 to 100 scale): 90
[6]; 31 g ai/ha
  Ryegrass, Italian plant response rating (0 to 100 scale): 0
[6]; 125 g ai/ha
  Ryegrass, Italian plant response rating (0 to 100 scale): 0
[7]
  Plant response rating, Barnyardgrass (Flood): 90
[8]
  Plant response rating, Sedge, Umbrella (Flood): 95
Rice (Oryza sativa)
  Plant response rating, Rice (Flood): 85
[9]
  Plant response rating, Ducksalad (Flood): 85
[10]; Postemergence, 31 g ai/ha
  Wheat plant response rating (0 to 100 scale): 0
[10]; [19]
  Wheat plant response rating (0 to 100 scale): 0
[11]; Postemergence, 31 g ai/ha
  Blackgrass plant response rating (0 to 100 scale): 20
[11]; [19]
  Blackgrass plant response rating (0 to 100 scale): 40
[12]; Postemergence, 31 g ai/ha
  Ragweed plant response rating (0 to 100 scale): 80
[12]; [19]
  Ragweed plant response rating (0 to 100 scale): 100
[13]; Postemergence, 31 g ai/ha
  Barnyardgrass plant response rating (0 to 100 scale): 30
[13]; [19]
  Barnyardgrass plant response rating (0 to 100 scale): 60
Corn (Zea mays); Postemergence, 31 g ai/ha
  Corn plant response rating (0 to 100 scale): 10
Corn (Zea mays); [19]
  Corn plant response rating (0 to 100 scale): 0
[14]; Postemergence, 31 g ai/ha
  Pigweed plant response rating (0 to 100 scale): 80
[14]; [19]
  Pigweed plant response rating (0 to 100 scale): 90
[15]; Postemergence, 31 g ai/ha
  Galium plant response rating (0 to 100 scale): 90
[15]; [19]
  Galium plant response rating (0 to 100 scale): 100
Kochia (Bassia scoparia) [16]; Postemergence, 31 g ai/ha
  Kochia plant response rating (0 to 100 scale): 0
Kochia (Bassia scoparia) [16]; [19]
  Kochia plant response rating (0 to 100 scale): 20
[17]; Postemergence, 31 g ai/ha
  Foxtail, Giant plant response rating (0 to 100 scale): 70
[17]; [19]
  Foxtail, Giant plant response rating (0 to 100 scale): 80
[18]; Postemergence, 31 g ai/ha
  Ryegrass, Italian plant response rating (0 to 100 scale): 0
[18]; [19]
  Ryegrass, Italian plant response rating (0 to 100 scale): 0
